Where two headings read alike, the source gives them in different places.
Columns and labels:
[1] = biological target: BRD4-BD1 (Homo sapiens (Human), UniProt O60885); test: BRD4 AlphaScreen Assay (Example A2), BRD4-BD1; type: binding
Method: (§1) BRD4-BD1 and BRD4-BD2 assays were conducted in white 384-well polystyrene plate in a final volume of 40 μL for BD1 and 60 μL for BD2. Inhibitors were first serially diluted in DMSO and added to the plate wells before the addition of other reaction components. […] The assays were carried out at room temperature in the assay buffer (50 mM Tris-HCl, pH 7.5, 0.01% Tween-20, 0.01% BSA, 5 mM DTT), containing 50 nM Biotin-labeled tetra-acetylated histone H4 peptide (H4Ac4) and BRD4-BD1 or BRD4-BD2 protein at concentration less than 1 nM. […] After plate sealing, the plate was incubated in the dark at room temperature for 75 min. before reading on a PHERAstar FS plate reader (BMG Labtech). IC50 determination was performed by fitting the curve of percent control activity versus the log of the inhibitor concentration using the GraphPad Prism 5.0 software.

[2] = biological target: BRD4-BD2 (Homo sapiens (Human), UniProt O60885); test: BRD4 AlphaScreen Assay (Example A2), BRD4-BD2; type: binding
Method: as §1

[3] = Assay A2, AlphaScreen, BRD4-BD1, read-out: BRD4 BD-1 enzyme IC50
[4] = Assay A2, AlphaScreen, BRD4-BD2, read-out: BRD4 BD-2 enzyme IC50
[5] = read-out: BRD4 BD-2 enzyme IC50

Row | IC50 [1, 3] [nM] | IC50 [2, 4] [nM] | SMILES | also measured
1 | < 100 | < 100 | Cc1noc(C)c1-c1ccc2nc(C3CCNC3)n3c2c1OC[C@@H]3c1ccccn1 (single isomer, unassigned; diastereomer 1) [Example 106A] | –
2 | < 100 | < 100 | CC(=O)N1CCC(c2nc3ccc(-c4c(C)noc4C)c4c3n2[C@@H](c2ccccn2)CO4)C1 (single isomer, unassigned; diastereomer 1) [Example 113A] | –
3 | < 100 | < 100 | Cc1noc(C)c1-c1ccc2nc(C3CCN(C(=O)C4CC4)C3)n3c2c1OC[C@@H]3c1ccccn1 (single isomer, unassigned; diastereomer 1) [Example 114A] | –
4 | < 100 | < 100 | Cc1noc(C)c1-c1ccc2nc(C3CCNC3)n3c2c1OC[C@@H]3c1ccccn1 (single isomer, unassigned; diastereomer 2) [Example 106B] | –
5 | < 100 | < 100 | CC(=O)N1CCC(c2nc3ccc(-c4c(C)noc4C)c4c3n2[C@@H](c2ccccn2)CO4)C1 (single isomer, unassigned; diastereomer 2) [Example 113B] | –
6 | < 100 | < 100 | Cc1noc(C)c1-c1ccc2[nH]c(=O)n3c2c1OCC3c1cccc[n+]1[O-] (stereo not drawn) [Example 16, 7-(3,5-Dimethylisoxazol-4-yl)-4-(1-oxidopyridin-2-yl)-4,5-dihydroimidazo[1,5,4-de][1,4]benzoxazin-2(1H)-one] | –
7 | < 100 | < 100 | Cc1noc(C)c1-c1ccc2[nH]c(=O)n3c2c1OCC3c1ccc(F)cn1 (stereo not drawn) [Example 19, 7-(3,5-Dimethylisoxazol-4-yl)-4-(5-fluoropyridin-2-yl)-4,5-dihydroimidazo[1,5,4-de][1,4]benzoxazin-2(1H)-one] | –
8 | < 100 | < 100 | Cc1noc(C)c1-c1cc(C#N)c2[nH]c(=O)n3c2c1OCC3c1ccccc1 (stereo not drawn) [Example 42, 7-(3,5-Dimethylisoxazol-4-yl)-2-oxo-4-phenyl-1,2,4,5-tetrahydroimidazo[1,5,4-de][1,4]benzoxazine-9-carbonitrile] | –
9 | < 100 | < 100 | Cc1noc(C)c1-c1cc(-c2ccccc2)c2[nH]c(=O)n3c2c1OCC3c1ccccc1 (stereo not drawn) [Example 43, 7-(3,5-Dimethylisoxazol-4-yl)-4,9-diphenyl-4,5-dihydroimidazo[1,5,4-de][1,4]benzoxazin-2(1H)-one] | –
10 | 1000 to 10000 | 100 to 1000 | Cc1cnn(C)c1-c1ccc2[nH]c(=O)n3c2c1OCC3c1ccccn1 (stereo not drawn) [Example 44, 7-(1,4-Dimethyl-1H-pyrazol-5-yl)-4-pyridin-2-yl-4,5-dihydroimidazo[1,5,4-de][1,4]benzoxazin-2(1H)-one] | –
11 | < 100 | < 100 | Cc1noc(C)c1-c1cc(Br)c2[nH]c(=O)n3c2c1OCC3c1ccccc1 (stereo not drawn) [Example 45, 9-Bromo-7-(3,5-Dimethylisoxazol-4-yl)-4-phenyl-4,5-dihydroimidazo[1,5,4-de][1,4]benzoxazin-2(1H)-one] | –
12 | < 100 | < 100 | Cc1noc(C)c1-c1cc(C)c2[nH]c(=O)n3c2c1OCC3c1ccccc1 (stereo not drawn) [Example 46, 7-(3,5-Dimethylisoxazol-4-yl)-9-methyl-4-phenyl-4,5-dihydroimidazo[1,5,4-de][1,4]benzoxazin-2(1H)-one] | –
13 | < 100 | < 100 | Cc1noc(C)c1-c1cc(-c2cccnc2)c2[nH]c(=O)n3c2c1OCC3c1ccccc1 (stereo not drawn) [Example 52, 7-(3,5-Dimethylisoxazol-4-yl)-4-phenyl-9-pyridin-3-yl-4,5-dihydroimidazo[1,5,4-de][1,4]benzoxazin-2(1H)-one] | –
14 | < 100 | < 100 | Cc1noc(C)c1-c1ccc2[nH]c(=O)n3c2c1OCC3(C)c1ccccn1 (stereo not drawn) [Example 69, 7-(3,5-Dimethylisoxazol-4-yl)-4-methyl-4-pyridin-2-yl-4,5-dihydroimidazo[1,5,4-de][1,4]benzoxazin-2(1H)-one] | –
15 | – | – | CCC1(c2ccccn2)COc2c(-c3c(C)noc3C)ccc3[nH]c(=O)n1c23 (stereo not drawn) [Example 70, 7-(3,5-Dimethylisoxazol-4-yl)-4-ethyl-4-pyridin-2-yl-4,5-dihydroimidazo[1,5,4-de][1,4]benzoxazin-2(1H)-one 2,2,2-trifluoroacetate] | IC50 ([1]; read-out: BRD4 BD-1 enzyme IC50): < 100 nM; IC50 [2, 5]: < 100 nM
16 | 100 to 1000 | < 100 | Cc1noc(C)c1-c1ccc2[nH]c(=O)n3c2c1OCC3(CN)c1ccccn1 (stereo not drawn) [Example 73, 4-(Aminomethyl)-7-(3,5-dimethylisoxazol-4-yl)-4-pyridin-2-yl-4,5-dihydroimidazo[1,5,4-de][1,4]benzoxazin-2(1H)-one bis(2,2,2-trifluoroacetate)] | –
17 | 100 to 1000 | < 100 | Cc1noc(C)c1-c1ccc2[nH]c(=O)n3c2c1OCC3(C(N)=O)c1ccccn1 (stereo not drawn) [Example 74, 7-(3,5-Dimethylisoxazol-4-yl)-2-oxo-4-pyridin-2-yl-1,2,4,5-tetrahydroimidazo[1,5,4-de][1,4]benzoxazine-4-carboxamide 2,2,2-trifluoroacetate] | –
18 | < 100 | < 100 | Cc1noc(C)c1-c1ccc2[nH]c(=O)n3c2c1OC(C)C3c1ccccn1 (stereo not drawn) [Example 75, 7-(3,5-dimethylisoxazol-4-yl)-5-methyl-4-pyridin-2-yl-4,5-dihydroimidazo[1,5,4-de][1,4]benzoxazin-2(1H)-one] | –
19 | 100 to 1000 | 100 to 1000 | CNC(=O)C1Oc2c(-c3c(C)noc3C)ccc3[nH]c(=O)n(c23)C1c1ccccn1 (stereo not drawn) [Example 76, 7-(3,5-dimethylisoxazol-4-yl)-N-methyl-2-oxo-4-pyridin-2-yl-1,2,4,5-tetrahydroimidazo[1,5,4-de][1,4]benzoxazine-5-carboxamide 2,2,2-trifluoroacetate] | –
20 | 100 to 1000 | 100 to 1000 | Cc1noc(C)c1-c1ccc2[nH]c(=O)n3c2c1OC(C(N)=O)C3c1ccccn1 (stereo not drawn) [Example 77, 7-(3,5-dimethylisoxazol-4-yl)-2-oxo-4-pyridin-2-yl-1,2,4,5-tetrahydroimidazo[1,5,4-de][1,4]benzoxazine-5-carboxamide 2,2,2-trifluoroacetate] | –
21 | < 100 | < 100 | Cc1noc(C)c1-c1ccc2[nH]c(=O)n3c2c1OCC3c1cncc(F)c1 (stereo not drawn) [Example 78, 7-(3,5-dimethylisoxazol-4-yl)-4-(5-fluoropyridin-3-yl)-4,5-dihydroimidazo[1,5,4-de][1,4]benzoxazin-2(1H)-one] | –
22 | – | – | Cc1noc(C)c1-c1ccc2[nH]c(=O)n3c2c1OCC3C1CCCCN1S(C)(=O)=O (stereo not drawn) [Example 79, 7-(3,5-dimethylisoxazol-4-yl)-4-[1-(methylsulfonyl)piperidin-2-yl]-4,5-dihydroimidazo[1,5,4-de][1,4]benzoxazin-2(1H)-one] | IC50 [1]: 1000 to 10000 nM; IC50 [2]: 1000 to 10000 nM

Row | SMILES | IC50 [1, 3] [nM] | IC50 [2, 4] [nM] | also measured
23 | CNC(=O)C1(c2ccccn2)COc2c(-c3c(C)noc3C)ccc3[nH]c(=O)n1c23 (stereo not drawn) [Example 71, 7-(3,5-Dimethylisoxazol-4-yl)-N-methyl-2-oxo-4-pyridin-2-yl-1,2,4,5-tetrahydroimidazo[1,5,4-de][1,4]benzoxazine-4-carboxamide 2,2,2-trifluoroacetate] | 100 to 1000 | – | IC50 [2, 5]: < 100 nM
24 | Cc1noc(C)c1-c1ccc2[nH]c(=O)n3c2c1OCC3C1CCCCN1C(=O)NC(C)C (stereo not drawn) [Example 80, 2-[7-(3,5-dimethylisoxazol-4-yl)-2-oxo-1,2,4,5-tetrahydroimidazo[1,5,4-de][1,4]benzoxazin-4-yl]-N-isopropylpiperidine-1-carboxamide] | 1000 to 10000 | 1000 to 10000 | –
